Measurements: publication PMC1968247 (British Journal of Cancer, 1993)
Where “and” joins values, the source holds several entries; their conditions need not be identical. Identical values can stand only once. Like-named read-outs stand apart in the source and are kept apart here.

Legend:
MAC 13 tumours = experiment: Anti-tumour activity against MAC 13 (tumour weight); assay type: in vivo, NMRI mice
Description: (§1) Br. J. Cancer (1993), 67, 441 446 t? […] Bibby Clinical Oncology Unit, University of Bradford, West Yorkshire, BD7 JDP, UK. […] In vivo anti-tumour activity was examined against three transplantable adenocarcinomas of the mouse colon and in vivo bone marrow toxicity was assessed using a spleen colony forming unit assay. The pharmacokinetic behaviour of the drug in vivo and drug stability in vitro was analysed by gas chromatography with electron capture detection. […] Clinical responses to cytotoxic agents have been largely restricted to the haematological malignancies while the majority of human solid tumours have remained refractory to chemotherapy (Marsoni et al., 1987). […] However, their clinical usefulness has been limited by non-selective host toxicity, particularly myelosuppres- sion. The chloroethylnitrosoureas decompose spontaneously in aqueous solution to generate reactive intermediates that are capable of alkylating and carbamoylating nucleophilic targets (Cheng et al., 1972). Alkylation reactions consist of chloroethylations and hydroxyethylations of DNA (Tong et al., 1982). Chloroethylation of 06-guanine with subsequent cross-link formation is considered to be the most important cytotoxic reaction (Lown et al., 1978) while hydroxyethyla- tion reactions are thought to be responsible for their mutagenic and carcinogenic effects (Pelfrene et al., 1976; Swenson et al., 1979). […] In the search for other types of compound that would chloroethylate DNA, a series of 2-haloethylsulphonates was synthesised (Shealy et al., 1983). […] Recently, the NCI has introduced a new disease-orientated screening programme based on the assessment of the in vitro cytotoxicity of a panel of cell lines representing the common clinical forms of human cancers using a colorimetric assay (Boyd, 1989). […] One reason for this discrepancy is that the in vitro tests ignore the potential role played by the pharmacokinetic behaviour and bioavailability of a drug in determining tumour responses in vivo. […] It has been used extensively as part of the pre-clinical evaluation of new anti-cancer agents within the Screening and Pharmacology Group of the EORTC (Bibby et al., 1988b). The feasibility of performing minimal toxicity studies in conjunction with anti-tumour studies has been described (Bibby et al., 1988b). […] Correspondence: A.M. Matthew. Received 6 December 1991; and in revised form 13 October 1992. Br. J. Cancer (1993), 67, 441-446 '?" Macmillan Press Ltd., 1993 442 A.M. MATIHEW et al. ethylating agents with improved therapeutic indices. The assessment of stem cell survival has been recommended to study irreversible cytotoxic bone marrow injury (Schofield, 1986) and this can be performed readily in mice using a spleen colony forming unit assay. […] In vitro activity was assessed against a panel of established murine and human tumour cell lines while in vivo anti-tumour responses were evaluated against an ascitic tumour, MAC 15A, and two solid subcutaneous (sc) tumours, MAC 13 and MAC 26. MAC 13 is relatively nitrosourea-sensitive due to a low level of the repair enzyme 06-alkylguanine-DNA alkyltransferase while MAC 26 is relatively nitrosourea-resistant due to a high repair enzyme level (Lunn et al., 1989). In vivo bone marrow toxicity and pharmacokinetic studies and in vitro drug stability studies were performed in conjunction with the anti-tumour studies. […] Chlorozotocin was dissolved in 10% dimethylsulphoxide (DMSO)/arachis oil. Drug solutions were prepared at an appropriate concentration for the desired in vivo dose to be administered in 0.1 ml per 10 g body weight by intra- peritoneal (ip) or intravenous (iv) injection and for the desired final concentration in vitro to be achieved upon a 1 in 10 dilution. […] Chemosensitivity testing In vitro chemosensitivity was assessed using a modified micro-tetrazolium (MTT) assay (Twenty- man & Luscombe, 1987).

MAC 15A ascites tumour = experiment: Anti-tumour activity against MAC 15A (median survival time); assay type: in vivo, NMRI mice
Description: as §1

P388 leukaemia = test system: P388 leukaemia; set-up: method as in Shealy et al., 1984; conditions: ref Shealy et al., 1984; cited from earlier work
[1] = Pharmacokinetic study, plasma Clomesone by gas chromatography; conditions: 50 mg kg-1 ip
Description: as §1

[2] = In vitro stability in complete RPMI 1640 tissue culture medium; assay type: in vitro ADME; conditions: complete RPMI 1640 medium, 37 C, initial 10 ug/ml
Description: (§2) Br. J. Cancer (1993), 67, 441 446 t? […] Bibby Clinical Oncology Unit, University of Bradford, West Yorkshire, BD7 JDP, UK. […] In vivo anti-tumour activity was examined against three transplantable adenocarcinomas of the mouse colon and in vivo bone marrow toxicity was assessed using a spleen colony forming unit assay. The pharmacokinetic behaviour of the drug in vivo and drug stability in vitro was analysed by gas chromatography with electron capture detection. […] Clinical responses to cytotoxic agents have been largely restricted to the haematological malignancies while the majority of human solid tumours have remained refractory to chemotherapy (Marsoni et al., 1987). […] However, their clinical usefulness has been limited by non-selective host toxicity, particularly myelosuppres- sion. […] The assessment of stem cell survival has been recommended to study irreversible cytotoxic bone marrow injury (Schofield, 1986) and this can be performed readily in mice using a spleen colony forming unit assay. […] In vitro activity was assessed against a panel of established murine and human tumour cell lines while in vivo anti-tumour responses were evaluated against an ascitic tumour, MAC 15A, and two solid subcutaneous (sc) tumours, MAC 13 and MAC 26. […] Chemosensitivity testing In vitro chemosensitivity was assessed using a modified micro-tetrazolium (MTT) assay (Twenty- man & Luscombe, 1987).

MAC 15A = experiment: In vitro chemosensitivity, MTT assay; assay type: cell-based, murine; conditions: area under decay curve of the IC50 over the MTT assay
Description: (§3) Br. J. Cancer (1993), 67, 441 446 t? […] Bibby Clinical Oncology Unit, University of Bradford, West Yorkshire, BD7 JDP, UK. […] In vivo anti-tumour activity was examined against three transplantable adenocarcinomas of the mouse colon and in vivo bone marrow toxicity was assessed using a spleen colony forming unit assay. The pharmacokinetic behaviour of the drug in vivo and drug stability in vitro was analysed by gas chromatography with electron capture detection. […] Clinical responses to cytotoxic agents have been largely restricted to the haematological malignancies while the majority of human solid tumours have remained refractory to chemotherapy (Marsoni et al., 1987). […] However, their clinical usefulness has been limited by non-selective host toxicity, particularly myelosuppres- sion. The chloroethylnitrosoureas decompose spontaneously in aqueous solution to generate reactive intermediates that are capable of alkylating and carbamoylating nucleophilic targets (Cheng et al., 1972). Alkylation reactions consist of chloroethylations and hydroxyethylations of DNA (Tong et al., 1982). Chloroethylation of 06-guanine with subsequent cross-link formation is considered to be the most important cytotoxic reaction (Lown et al., 1978) while hydroxyethyla- tion reactions are thought to be responsible for their mutagenic and carcinogenic effects (Pelfrene et al., 1976; Swenson et al., 1979). […] In the search for other types of compound that would chloroethylate DNA, a series of 2-haloethylsulphonates was synthesised (Shealy et al., 1983). […] Recently, the NCI has introduced a new disease-orientated screening programme based on the assessment of the in vitro cytotoxicity of a panel of cell lines representing the common clinical forms of human cancers using a colorimetric assay (Boyd, 1989). […] One reason for this discrepancy is that the in vitro tests ignore the potential role played by the pharmacokinetic behaviour and bioavailability of a drug in determining tumour responses in vivo. […] It has been used extensively as part of the pre-clinical evaluation of new anti-cancer agents within the Screening and Pharmacology Group of the EORTC (Bibby et al., 1988b). The feasibility of performing minimal toxicity studies in conjunction with anti-tumour studies has been described (Bibby et al., 1988b). […] Correspondence: A.M. Matthew. Received 6 December 1991; and in revised form 13 October 1992. Br. J. Cancer (1993), 67, 441-446 '?" Macmillan Press Ltd., 1993 442 A.M. MATIHEW et al. ethylating agents with improved therapeutic indices. The assessment of stem cell survival has been recommended to study irreversible cytotoxic bone marrow injury (Schofield, 1986) and this can be performed readily in mice using a spleen colony forming unit assay. […] In vitro activity was assessed against a panel of established murine and human tumour cell lines while in vivo anti-tumour responses were evaluated against an ascitic tumour, MAC 15A, and two solid subcutaneous (sc) tumours, MAC 13 and MAC 26. MAC 13 is relatively nitrosourea-sensitive due to a low level of the repair enzyme 06-alkylguanine-DNA alkyltransferase while MAC 26 is relatively nitrosourea-resistant due to a high repair enzyme level (Lunn et al., 1989). […] Chemosensitivity testing In vitro chemosensitivity was assessed using a modified micro-tetrazolium (MTT) assay (Twenty- man & Luscombe, 1987).

MAC 26 = experiment: In vitro chemosensitivity, MTT assay; assay type: cell-based, murine
Description: as §3

MAC 16 = experiment: In vitro chemosensitivity, MTT assay; assay type: cell-based, murine; conditions: area under decay curve of the IC50 over the MTT assay
Description: as §3

WEHI-3B = experiment: In vitro chemosensitivity, MTT assay; assay type: cell-based, murine; conditions: area under decay curve of the IC50 over the MTT assay
Description: as §3

[3] = set-up: method as in Chan & Barrientos, 1988; conditions: previously reported; ref Chan & Barrientos, 1988; cited from earlier work
[4] = Maximum tolerated dose, full dose range to the point of toxicity; conditions: ip, mice
Description: as §2, with “sion. The chloroethylnitrosoureas decompose spontaneously in aqueous solution to generate reactive intermediates that are capable of alkylating and carbamoylating nucleophilic targets (Cheng et al., 1972). Alkylation reactions consist of chloroethylations and hydroxyethylations of DNA (Tong et al., 1982). Chloroethylation of 06-guanine with subsequent cross-link formation is considered to be the most important cytotoxic reaction (Lown et al., 1978) while hydroxyethyla- tion reactions are thought to be responsible for their mutagenic and carcinogenic effects (Pelfrene et al., 1976; Swenson et al., 1979).” for “sion.”

MAC 26 tumours = conditions: for Tumour growth delay: MAC 26; for Survivors: MAC 26 bearers
Description: as §1

bone marrow = conditions: for Survival fraction: 24 h
Description: as §1

HCLO = experiment: In vitro chemosensitivity, MTT assay; assay type: cell-based, human; conditions: area under decay curve of the IC50 over the MTT assay
Description: as §1

HRT-18 = experiment: In vitro chemosensitivity, MTT assay; assay type: cell-based, human
Description: as §1

HCT-18 = experiment: In vitro chemosensitivity, MTT assay; assay type: cell-based, human
Description: as §1

K562 = experiment: In vitro chemosensitivity, MTT assay; assay type: cell-based, human; conditions: area under decay curve of the IC50 over the MTT assay
Description: as §1

HT-29 = experiment: In vitro chemosensitivity, MTT assay; assay type: cell-based, human
Description: as §1

DLD-1 = experiment: In vitro chemosensitivity, MTT assay; assay type: cell-based, human
Description: as §1

[5] = area under decay curve of the IC50 over the MTT assay

## CS(=O)(=O)CS(=O)(=O)OCCCl [Clomesone, 2-chloroethyl(methylsulphonyl)methanesulphonate]
MAC 13 tumours; 12.5 mg kg-1 ip
  % Tumour weight inhibition: 21.6%
MAC 13 tumours; 12.5 mg kg-1 iv
  % Tumour weight inhibition: 45.9%
MAC 13 tumours; 25 mg kg-1 ip
  % Tumour weight inhibition: 13.5%
MAC 13 tumours; 25 mg kg-1 iv
  % Tumour weight inhibition: 21.6%
MAC 13 tumours; 50 mg kg-1 iv
  % Tumour weight inhibition: 47.3%
MAC 13 tumours; 100 mg kg-1 ip, assessed 17 days later
  % Tumour weight inhibition: 48.3%
MAC 15A ascites tumour; 12.5 mg kg-1 ip
  T/C%: 88%
MAC 15A ascites tumour; 12.5 mg kg-1 iv
  T/C%: 100%
MAC 15A ascites tumour; 25 mg kg-1 ip
  T/C%: 138%
MAC 15A ascites tumour; 25 mg kg-1 iv
  T/C%: 100%
MAC 15A ascites tumour; 50 mg kg-1 ip
  T/C%: 163%
MAC 15A ascites tumour; 50 mg kg-1 iv
  T/C%: 125%
MAC 15A ascites tumour; 100 mg kg-1 ip, median survival time treated/control
  T/C%: 133% and 163%
P388 leukaemia
  Activity against P388 leukaemia in vivo (in words): highly effective
[1]
  Time to peak plasma levels: ≤ 2 min
  area under the plasma concentration versus time curve, mean value: 6.77 .ghmlh'
  areas under the plasma concentration versus time curves, range: 5.70-8.04 lagh ml-'
[1]; female non-tumour bearing mice, three experiments
  Peak plasma levels, mean value: 28.0 ggmlh'
[1]; plasma
  mean terminal half-life: 8.1 min
  terminal half-life, range: 4.8 to 10.8 min
[1]; three experiments
  Peak plasma levels, range: 18.1-35.9 jigml-'
[2]
  1st order rate constant (k) of degradation: 0.205
  t1/2 in tissue culture medium: 3.38 h
MAC 15A
  c x t (concentration-time product): 54 fig h ml- '
MAC 26; MTT, 4 days, one experiment only
  IC50: 35 igm9l-'
MAC 26; [5]
  c x t (concentration-time product): 185 fig h ml- '
MAC 16
  c x t (concentration-time product): 177 fig h ml- '
WEHI-3B
  c x t (concentration-time product): 150 fig h ml- '
[3]
  t1/2 in mouse plasma: 51 min
[4]
  Maximum tolerated dose: 100 mg kg-'
MAC 26 tumours; 25 mg kg-1 ip
  Tumour growth delay: 0 days
  Survivors: 10/10
MAC 26 tumours; 50 mg kg-1 ip
  Tumour growth delay: 0.8 days
  Survivors: 10/10
MAC 26 tumours; 100 mg kg-1 ip
  Tumour growth delay: 0.8 days
  Survivors: 10/10
MAC 26 tumours; 150 mg kg-1 ip
  Survivors: 0/10
MAC 26 tumours; 200 mg kg-1 ip
  Survivors: 0/10
Bone marrow; 25 mg kg-1 ip
  Survival fraction: 0.80
Bone marrow; 50 mg kg-1 ip
  Survival fraction: 0.59
Bone marrow; 100 mg kg-1 ip, colonies observed vs expected
  Survival fraction: 0.20 and 0.16
Bone marrow; maximum tolerated dose of 100 mg kg-1 ip
  reduction in colony forming units: 5 fold
HCLO
  c x t (concentration-time product): 146 fig h ml- '
HRT-18; MTT, 4 days, n = 4
  IC50: > 100 igm9l-'
HRT-18; [5]
  c x t (concentration-time product): > 528 fig h ml- '
HCT-18; MTT, 4 days, n = 4
  IC50: > 100 igm9l-'
HCT-18; [5]
  c x t (concentration-time product): > 528 fig h ml- '
K562
  c x t (concentration-time product): 207 fig h ml- '
HT-29; MTT, 4 days, n = 4
  IC50: > 100 igm9l-'
HT-29; [5]
  c x t (concentration-time product): > 528 fig h ml- '
DLD-1; MTT, 4 days, n = 4
  IC50: > 100 igm9l-'
DLD-1; [5]
  c x t (concentration-time product): > 528 fig h ml- '
